Columns and labels:
Assay in all cases: relative viability (nuclei count vs DMSO), 5 days (fraction); higher = more cells survive
NCI-H322M = test system: NCI-H322M
Procedure, shortened: (§1)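 Relative viability equals treated-well nuclei counts divided by vehicle-well nuclei counts. Counts came from 4× images of lung cancer cell lines grown in 1536-well plates for 5 days after pin-tool dosing on the day after seeding. Dosing used one drug alone or a fixed anchor-drug dose plus five library-drug doses (not always all listed) in √10 steps, and values are medians of duplicate plates.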

NCI-H727 = test system: NCI-H727
Procedure, shortened: as §1

NCI-H460 = test system: NCI-H460
Procedure, shortened: as §1

NCI-H1792 = test system: NCI-H1792
Procedure, shortened: as §1

NCI-H522 = test system: NCI-H522
Procedure, shortened: as §1

NCI-H1651 = test system: NCI-H1651
Procedure, shortened: as §1

NCI-H650 = test system: NCI-H650
Procedure, shortened: as §1

NCI-H2347 = test system: NCI-H2347
Procedure, shortened: as §1

NCI-H1355 = test system: NCI-H1355
Procedure, shortened: as §1

LXF-289 = test system: LXF-289
Procedure, shortened: as §1

NCI-H441 = test system: NCI-H441
Procedure, shortened: as §1

NCI-H2170 = test system: NCI-H2170
Procedure, shortened: as §1

PC-14 = test system: PC-14
Procedure, shortened: as §1

NCI-H520 = test system: NCI-H520
Procedure, shortened: as §1

RERF-LC-KJ = test system: RERF-LC-KJ
Procedure, shortened: as §1

NCI-H1915 = test system: NCI-H1915
Procedure, shortened: as §1

NCI-H596 = test system: NCI-H596
Procedure, shortened: as §1

SK-MES-1 = test system: SK-MES-1
Procedure, shortened: as §1

SW 900 = test system: SW 900
Procedure, shortened: as §1

LCLC-103H = test system: LCLC-103H
Procedure, shortened: as §1

NCI-H661 = test system: NCI-H661
Procedure, shortened: as §1

NCI-H3122 = test system: NCI-H3122
Procedure, shortened: as §1

NCI-H1755 = test system: NCI-H1755
Procedure, shortened: as §1

CC(C)Oc1cc(Nc2nc(N[C@@H](C)c3ccc(F)cn3)ncc2Cl)n[nH]1 [AZ23] + O=C(c1cc(Cc2n[nH]c(=O)c3ccccc23)ccc1F)N1CCN(C(=O)C2CC2)CC1 [Olaparib] (partner 8 µM)
relative viability (NCI-H322M; first compound 0.01 µM): 0.564
relative viability (NCI-H322M; first compound 0.03162 µM): 0.749
relative viability (NCI-H322M; first compound 0.3162 µM): 0.741
relative viability (NCI-H727; first compound 0.01 µM): 0.751
relative viability (NCI-H727; first compound 0.03162 µM): 0.678
relative viability (NCI-H727; first compound 0.3162 µM): 0.689
relative viability (NCI-H460; first compound 0.01 µM): 0.24
relative viability (NCI-H460; first compound 0.03162 µM): 0.518
relative viability (NCI-H460; first compound 0.3162 µM): 0.481
relative viability (NCI-H1792; first compound 0.01 µM): 0.27
relative viability (NCI-H1792; first compound 0.03162 µM): 0.594
relative viability (NCI-H1792; first compound 0.3162 µM): 0.373
relative viability (NCI-H522; first compound 0.01 µM): 0.667
relative viability (NCI-H522; first compound 0.03162 µM): 0.598
relative viability (NCI-H522; first compound 0.3162 µM): 0.641
relative viability (NCI-H1651; first compound 0.01 µM): 0.182
relative viability (NCI-H1651; first compound 0.03162 µM): 0.166
relative viability (NCI-H1651; first compound 0.3162 µM): 0.19
relative viability (NCI-H650; first compound 0.01 µM): 0.483
relative viability (NCI-H650; first compound 0.03162 µM): 0.454
relative viability (NCI-H650; first compound 0.3162 µM): 0.357
relative viability (NCI-H2347; first compound 0.01 µM): 0.579
relative viability (NCI-H2347; first compound 0.03162 µM): 0.622
relative viability (NCI-H2347; first compound 0.3162 µM): 0.604
relative viability (NCI-H1355; first compound 0.01 µM): 0.808
relative viability (NCI-H1355; first compound 0.03162 µM): 0.771
relative viability (NCI-H1355; first compound 0.3162 µM): 0.699
relative viability (LXF-289; first compound 0.01 µM): 1.39
relative viability (LXF-289; first compound 0.03162 µM): 1.14
relative viability (LXF-289; first compound 0.3162 µM): 1.1
relative viability (NCI-H441; first compound 0.01 µM): 0.645
relative viability (NCI-H441; first compound 0.03162 µM): 0.69
relative viability (NCI-H441; first compound 0.3162 µM): 0.494
relative viability (NCI-H2170; first compound 0.01 µM): 0.649
relative viability (NCI-H2170; first compound 0.03162 µM): 0.658
relative viability (NCI-H2170; first compound 0.3162 µM): 0.619
relative viability (PC-14; first compound 0.01 µM): 0.189
relative viability (PC-14; first compound 0.03162 µM): 0.36
relative viability (PC-14; first compound 0.3162 µM): 0.296
relative viability (NCI-H520; first compound 0.01 µM): 0.346
relative viability (NCI-H520; first compound 0.03162 µM): 0.328
relative viability (NCI-H520; first compound 0.3162 µM): 0.312
relative viability (RERF-LC-KJ; first compound 0.01 µM): 1.06
relative viability (RERF-LC-KJ; first compound 0.03162 µM): 0.875
relative viability (RERF-LC-KJ; first compound 0.3162 µM): 0.917
relative viability (NCI-H1915; first compound 0.01 µM): 0.259
relative viability (NCI-H1915; first compound 0.03162 µM): 0.253
relative viability (NCI-H1915; first compound 0.3162 µM): 0.275
relative viability (NCI-H596; first compound 0.01 µM): 0.603
relative viability (NCI-H596; first compound 0.03162 µM): 0.749
relative viability (NCI-H596; first compound 0.3162 µM): 0.665
relative viability (SK-MES-1; first compound 0.03162 µM): 0.833
relative viability (SK-MES-1; first compound 0.3162 µM): 0.764
relative viability (SW 900; first compound 0.01 µM): 0.804
relative viability (SW 900; first compound 0.3162 µM): 0.869
relative viability (LCLC-103H; first compound 0.01 µM): 0.981
relative viability (LCLC-103H; first compound 0.03162 µM): 0.86
relative viability (LCLC-103H; first compound 0.3162 µM): 0.864
relative viability (NCI-H661; first compound 0.01 µM): 0.823
relative viability (NCI-H661; first compound 0.03162 µM): 0.792
relative viability (NCI-H661; first compound 0.3162 µM): 0.738
relative viability (NCI-H3122; first compound 0.01 µM): 0.627
relative viability (NCI-H3122; first compound 0.03162 µM): 0.715
relative viability (NCI-H3122; first compound 0.3162 µM): 0.684
relative viability (NCI-H1755; first compound 0.01 µM): 0.962
relative viability (NCI-H1755; first compound 0.03162 µM): 0.955
relative viability (NCI-H1755; first compound 0.3162 µM): 1

CC(C)Oc1cc(Nc2nc(N[C@@H](C)c3ccc(F)cn3)ncc2Cl)n[nH]1 [AZ23] + CC(=O)Nc1cccc(-n2c(=O)n(C3CC3)c(=O)c3c(Nc4ccc(I)cc4F)n(C)c(=O)c(C)c32)c1 [Trametinib] (partner 0.02 µM)
relative viability (NCI-H322M; first compound 0.01 µM): 0.454
relative viability (NCI-H322M; first compound 0.03162 µM): 0.481
relative viability (NCI-H322M; first compound 0.3162 µM): 0.565
relative viability (NCI-H727; first compound 0.01 µM): 0.365
relative viability (NCI-H727; first compound 0.03162 µM): 0.36
relative viability (NCI-H727; first compound 0.3162 µM): 0.389
relative viability (NCI-H460; first compound 0.01 µM): 0.119
relative viability (NCI-H460; first compound 0.03162 µM): 0.128
relative viability (NCI-H460; first compound 0.3162 µM): 0.166
relative viability (NCI-H1792; first compound 0.01 µM): 0.472
relative viability (NCI-H1792; first compound 0.03162 µM): 0.347
relative viability (NCI-H1792; first compound 0.3162 µM): 0.294
relative viability (NCI-H522; first compound 0.01 µM): 0.894
relative viability (NCI-H522; first compound 0.03162 µM): 0.796
relative viability (NCI-H522; first compound 0.3162 µM): 0.617
relative viability (NCI-H1651; first compound 0.01 µM): 0.829
relative viability (NCI-H1651; first compound 0.03162 µM): 0.87
relative viability (NCI-H1651; first compound 0.3162 µM): 0.854
relative viability (NCI-H650; first compound 0.01 µM): 0.955
relative viability (NCI-H650; first compound 0.03162 µM): 0.99
relative viability (NCI-H650; first compound 0.3162 µM): 0.987
relative viability (NCI-H2347; first compound 0.01 µM): 0.272
relative viability (NCI-H2347; first compound 0.03162 µM): 0.272
relative viability (NCI-H2347; first compound 0.3162 µM): 0.232
relative viability (NCI-H1355; first compound 0.01 µM): 0.359
relative viability (NCI-H1355; first compound 0.03162 µM): 0.417
relative viability (NCI-H1355; first compound 0.3162 µM): 0.353
relative viability (LXF-289; first compound 0.01 µM): 0.74
relative viability (LXF-289; first compound 0.03162 µM): 0.671
relative viability (LXF-289; first compound 0.3162 µM): 0.615
relative viability (NCI-H441; first compound 0.01 µM): 0.504
relative viability (NCI-H441; first compound 0.03162 µM): 0.433
relative viability (NCI-H441; first compound 0.3162 µM): 0.509
relative viability (NCI-H2170; first compound 0.01 µM): 1.14
relative viability (NCI-H2170; first compound 0.03162 µM): 0.953
relative viability (NCI-H2170; first compound 0.3162 µM): 0.994
relative viability (PC-14; first compound 0.01 µM): 0.599
relative viability (PC-14; first compound 0.03162 µM): 0.783
relative viability (PC-14; first compound 0.3162 µM): 0.749
relative viability (NCI-H520; first compound 0.01 µM): 0.853
relative viability (NCI-H520; first compound 0.03162 µM): 0.707
relative viability (NCI-H520; first compound 0.3162 µM): 0.587
relative viability (RERF-LC-KJ; first compound 0.01 µM): 0.837
relative viability (RERF-LC-KJ; first compound 0.03162 µM): 0.883
relative viability (RERF-LC-KJ; first compound 0.3162 µM): 0.862
relative viability (NCI-H1915; first compound 0.01 µM): 0.303
relative viability (NCI-H1915; first compound 0.03162 µM): 0.297
relative viability (NCI-H1915; first compound 0.3162 µM): 0.239
relative viability (NCI-H596; first compound 0.01 µM): 0.739
relative viability (NCI-H596; first compound 0.03162 µM): 0.779
relative viability (NCI-H596; first compound 0.3162 µM): 0.783
relative viability (SK-MES-1; first compound 0.03162 µM): 0.578
relative viability (SK-MES-1; first compound 0.3162 µM): 0.59
relative viability (SW 900; first compound 0.01 µM): 1.06
relative viability (SW 900; first compound 0.3162 µM): 0.873
relative viability (LCLC-103H; first compound 0.01 µM): 0.741
relative viability (LCLC-103H; first compound 0.03162 µM): 0.7
relative viability (LCLC-103H; first compound 0.3162 µM): 0.655
relative viability (NCI-H661; first compound 0.01 µM): 0.611
relative viability (NCI-H661; first compound 0.03162 µM): 0.575
relative viability (NCI-H661; first compound 0.3162 µM): 0.547
relative viability (NCI-H3122; first compound 0.01 µM): 0.268
relative viability (NCI-H3122; first compound 0.03162 µM): 0.243
relative viability (NCI-H3122; first compound 0.3162 µM): 0.22
relative viability (NCI-H1755; first compound 0.01 µM): 0.828
relative viability (NCI-H1755; first compound 0.03162 µM): 0.774
relative viability (NCI-H1755; first compound 0.3162 µM): 0.708

From the supplement of paper PMC10307832
